Legend:
Sat II on Chromosome 1 = settings: Ji et al., 1997; cited from earlier work
[1] = system: normal human fibroblasts (Tig-1); experiment: Aberrant Sat II RNA foci in normal fibroblasts after treatment with DNA demethylating agent, RNA FISH; type: cell-based
Source text: (§1) FIGS. 6A-6E. […] FIG. 6C is a photomicrograph showing that longer treatment (8 days total) results in aberrant expression of Sat II RNA from other loci that are not associated with BMI-1 bodies.
(§2) Importantly, aberrant Sat II RNA foci also appeared with longer term 5-aza-2d treatment, and importantly from sites distinct from 1q12 bearing the accumulated BMI-1 bodies (FIG. 6C). Aberrant Sat II expression was not seen in control or 1 day treated cells, was rare on day 3 and in ˜5-10% of cells by day 8. These findings reveal significant mechanistic insight into why PcG proteins so markedly accumulate at 1q12 in cancer but not normal cells, and provide important evidence of a link between two intensely studied areas of cancer epigenetics, DNA methylation and polycomb proteins.
(§3) Twenty two cell lines were examined in this study (list in Supplement), and grown in conditions recommended by suppliers (ATCC, Cambrex, and Coriell). 5-azacytidine (6 mM) and 5-aza-2′deoxycytidine (0.2 ug/ml) was added fresh daily to asynchronously growing cultures and refreshed every day. Our standard fixation protocols have been detailed previously (Johnson et al., 1991; Tam et al., 2002), and summarized in the Supplement. Human effusions were fixed as for cultured cells and tissue blocks were cryosectioned onto cold glass slides (HistoBond+), and stored at −80 briefly until fixation. Of four fixations tested (Supplement) the one that gave best results was brief triton extraction followed by paraformaldehyde fixation and storage in ETOH.
Sat2-24 nt LNA was used for most images unless otherwise indicated. Several methods of Sat 2 probe labeling and detection were tested (see below). RNA-specific hybridization was carried out under non-denaturing conditions where the DNA was not accessible. Oligos were usually hybridized at 15% formamide conditions, but were also compared to higher stringency hybridizations at 40% and 50% formamide. […]

[2] = system: normal human fibroblasts (Tig-1); experiment: BMI-1/Ring1B (PRC1) CAP body formation in normal fibroblasts after treatment with DNA demethylating agent, immunofluorescence and 1q12 DNA FISH; type: cell-based; settings: for number of CAP positive cells: 0.2 ug/ml added fresh daily
Source text: as §1, §2, §3
Simultaneous DNA/RNA and antibody detection: Most antibodies were used prior to RNA or DNA hybridization. Briefly, slides were incubated in the appropriate dilution of primary antibody in 1% BSA, 1xPBS and 1 U/ul RNasin, for 1 hour at 37 C. Slides were washed, and immunodetection was performed using 1:500 dilution of appropriately conjugated (Alexa 488 or Alexa 594, Invitrogen) secondary (anti-goat, mouse or rabbit) antibody, in 1×PBS with 1% BSA. The antibody signal is fixed in 4% paraformaldehyde for 10 min prior to hybridization (performed as detailed above), and all slides were counter stained with DAPI. Vectashield (Vector Labs) was used as mounting media for all fluorescence imaging.

Compound: Nc1ncn([C@H]2C[C@H](O)[C@@H](CO)O2)c(=O)n1 [5-aza-2d, 5-aza-2′-deoxycytidine]
- demethylation of Sat II on Chromosome 1 (Sat II on Chromosome 1): effectively demethylate Sat II on Chromosome 1
- aberrant Sat II expression (Sat II RNA foci) ([1]; 1 day treated cells): not seen
- aberrant Sat II expression (Sat II RNA foci) ([1]; day 3 of treatment): rare
- aberrant Sat II expression (Sat II RNA foci), cells positive ([1]; day 8 of treatment): 5-10 % of cells
- number of CAP bodies per cell ([2]; Day 1 of treatment): ~2
- number of CAP positive cells ([2]; Day 1 of treatment): 15%
- number of CAP positive cells ([2]; Day 3 of treatment): 52%
- number of CAP bodies per cell ([2]; Day 8 of treatment): ~4
- number of CAP positive cells ([2]; Day 8 of treatment): 80%

Source: patent US20140213475A1, “METHODS OF DIAGNOSING CANCER USING EPIGENETIC BIOMARKERS” (University of Massachusetts, priority 2011, published 2014)
